{"source": "patent US20210348164A1", "about": "“ENDOGENOUS CYTOPLASMIC ALU COMPLEMENTARY DNA IN AGE-RELATED MACULAR DEGENERATION” (University of Virginia Patent Foundation, priority 2018, published 2021)", "system": "L1 ORF2p-facilitated Alu RNA-induced RPE degeneration", "test": "Alu RNA-induced RPE degeneration in L1 ORF2-expressing Oryzomys palustris", "format": "in vivo", "conditions": "high dose (500 μmol)", "method": "Assessment of RPE degeneration. Subretinal injections were performed as previously described (Kaneko et al., 2011; Tarallo et al., 2012; Kerur et al., 2013; Fowler et al., 2014; Kim et al., 2014). Seven days after subretinal injection, RPE health was assessed by fundus photography and immunofluorescence staining of zonula occludens-1 (ZO-1) on RPE flat mounts (whole mount of posterior eye cup containing RPE and choroid layers). Mouse RPE/choroid flat mounts were fixed with 2% paraformaldehyde, stained with rabbit polyclonal antibodies against mouse ZO-1 (1:100; Invitrogen Corp. Carlsbad, Calif., United States of America) and visualized with Alexa-594 (Invitrogen Corp.). […]\nQuantification of RPE degeneration. Quantification of RPE degeneration was performed using two methodologies (binary assignment and cellular morphometry) as described previously (Kerur et al., 2018): Binary assignment (healthy versus unhealthy; Kerur et al., 2013; Fowler et al., 2014; Kim et al., 2014; Kerur et al., 2018) was independently performed by two blinded raters (inter-rater agreement=99.7%; Pearson r2=0.986, P<0.0001; Fleiss x=0.993, P<0.0001). […]", "data": [{"smiles": "CC(C)Nc1cccnc1N1CCN(C(=O)c2cc3cc(NS(C)(=O)=O)ccc3[nH]2)CC1", "note": "[DLV, delavirdine]", "values": [{"measurement": "Alu RNA-induced RPE degeneration", "result": "blocked"}]}]}
